Assay results: patent US20250325710A1, “Advanced In Vivo Platform to Study Human Neural Maturation and Circuit Integration” (priority 2022, published 2025)

Legend:
[1] = biological target: Smo heptahelical domain (Homo sapiens, UniProt Q99835); conditions: cited from earlier work
[2] = system: blue light-evoked EPSCs in rat pyramidal cortical neurons; format: cell-based
[3] = biological target: element-binding protein (CBP) (Homo sapiens, UniProt Q92793); conditions: cited from earlier work
[4] = biological target: T1, TNKS2 (Homo sapiens, UniProt Q9H2K2); conditions: cited from earlier work
T1 sequence (Q9H2K2 1-1166): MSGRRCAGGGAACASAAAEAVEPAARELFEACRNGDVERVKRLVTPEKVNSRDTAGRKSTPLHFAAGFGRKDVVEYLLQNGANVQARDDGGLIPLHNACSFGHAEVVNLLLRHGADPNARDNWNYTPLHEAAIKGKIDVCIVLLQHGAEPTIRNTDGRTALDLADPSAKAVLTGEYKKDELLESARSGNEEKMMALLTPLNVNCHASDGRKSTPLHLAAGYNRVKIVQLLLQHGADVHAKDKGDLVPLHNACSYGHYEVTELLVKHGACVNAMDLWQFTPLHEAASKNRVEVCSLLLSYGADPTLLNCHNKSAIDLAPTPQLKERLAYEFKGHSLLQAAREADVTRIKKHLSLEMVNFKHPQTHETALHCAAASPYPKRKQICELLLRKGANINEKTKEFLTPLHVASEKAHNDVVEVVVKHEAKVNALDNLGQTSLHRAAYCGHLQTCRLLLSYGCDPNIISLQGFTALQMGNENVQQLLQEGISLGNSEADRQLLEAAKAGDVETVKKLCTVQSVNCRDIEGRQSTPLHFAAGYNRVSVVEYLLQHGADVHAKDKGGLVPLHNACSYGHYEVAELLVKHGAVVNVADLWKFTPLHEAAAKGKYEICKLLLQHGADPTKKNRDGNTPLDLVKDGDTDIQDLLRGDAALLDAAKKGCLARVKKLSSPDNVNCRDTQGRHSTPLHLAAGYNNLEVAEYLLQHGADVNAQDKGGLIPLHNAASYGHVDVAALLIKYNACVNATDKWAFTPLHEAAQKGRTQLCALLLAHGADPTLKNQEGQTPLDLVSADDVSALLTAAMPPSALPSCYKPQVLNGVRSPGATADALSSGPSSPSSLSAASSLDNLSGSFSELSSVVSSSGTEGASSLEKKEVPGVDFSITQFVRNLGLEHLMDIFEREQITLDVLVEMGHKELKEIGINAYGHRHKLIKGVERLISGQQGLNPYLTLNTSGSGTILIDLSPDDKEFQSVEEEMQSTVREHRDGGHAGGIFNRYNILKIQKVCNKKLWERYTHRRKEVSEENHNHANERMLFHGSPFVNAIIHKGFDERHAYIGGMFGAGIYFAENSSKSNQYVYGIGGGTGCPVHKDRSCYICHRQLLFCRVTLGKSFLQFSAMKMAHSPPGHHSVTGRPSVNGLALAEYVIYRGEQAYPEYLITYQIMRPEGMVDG

[5] = system: AMPA receptor; test: Whole-cell recordings of blue light-evoked EPSCs in rat pyramidal cortical neurons in acute brain slices (activation of t-hCS axons); format: cell-based; conditions: evoked by blue light activation of t-hCS axons; NBQX 10 μM
[6] = system: AMPA receptor; test: Whole-cell recordings of evoked EPSCs in t-hCS human neurons in acute thalamocortical slices; format: cell-based; conditions: evoked by electrical stimulation of rat S1, internal capsule, white matter or t-hCS, or optogenetic activation of thalamic terminals; NBQX 10 μM
[7] = system: PORCN; conditions: HEK293 cells; read-out: IC50, Wnt3A-mediated activation of a multimerized TCF-binding site driving luciferase; cited from earlier work
[8] = system: Wnt processing and secretion; conditions: cell-free assay; cited from earlier work
[9] = system: Wnt-stimulated cellular responses; conditions: cited from earlier work
[10] = system: Wnt signaling; conditions: TM3 cells; cited from earlier work
[11] = system: PORCN; conditions: read-out: EC50, Porcn inhibitor; cited from earlier work

Sequence of element-binding protein (CBP) (Q92793 whole entry): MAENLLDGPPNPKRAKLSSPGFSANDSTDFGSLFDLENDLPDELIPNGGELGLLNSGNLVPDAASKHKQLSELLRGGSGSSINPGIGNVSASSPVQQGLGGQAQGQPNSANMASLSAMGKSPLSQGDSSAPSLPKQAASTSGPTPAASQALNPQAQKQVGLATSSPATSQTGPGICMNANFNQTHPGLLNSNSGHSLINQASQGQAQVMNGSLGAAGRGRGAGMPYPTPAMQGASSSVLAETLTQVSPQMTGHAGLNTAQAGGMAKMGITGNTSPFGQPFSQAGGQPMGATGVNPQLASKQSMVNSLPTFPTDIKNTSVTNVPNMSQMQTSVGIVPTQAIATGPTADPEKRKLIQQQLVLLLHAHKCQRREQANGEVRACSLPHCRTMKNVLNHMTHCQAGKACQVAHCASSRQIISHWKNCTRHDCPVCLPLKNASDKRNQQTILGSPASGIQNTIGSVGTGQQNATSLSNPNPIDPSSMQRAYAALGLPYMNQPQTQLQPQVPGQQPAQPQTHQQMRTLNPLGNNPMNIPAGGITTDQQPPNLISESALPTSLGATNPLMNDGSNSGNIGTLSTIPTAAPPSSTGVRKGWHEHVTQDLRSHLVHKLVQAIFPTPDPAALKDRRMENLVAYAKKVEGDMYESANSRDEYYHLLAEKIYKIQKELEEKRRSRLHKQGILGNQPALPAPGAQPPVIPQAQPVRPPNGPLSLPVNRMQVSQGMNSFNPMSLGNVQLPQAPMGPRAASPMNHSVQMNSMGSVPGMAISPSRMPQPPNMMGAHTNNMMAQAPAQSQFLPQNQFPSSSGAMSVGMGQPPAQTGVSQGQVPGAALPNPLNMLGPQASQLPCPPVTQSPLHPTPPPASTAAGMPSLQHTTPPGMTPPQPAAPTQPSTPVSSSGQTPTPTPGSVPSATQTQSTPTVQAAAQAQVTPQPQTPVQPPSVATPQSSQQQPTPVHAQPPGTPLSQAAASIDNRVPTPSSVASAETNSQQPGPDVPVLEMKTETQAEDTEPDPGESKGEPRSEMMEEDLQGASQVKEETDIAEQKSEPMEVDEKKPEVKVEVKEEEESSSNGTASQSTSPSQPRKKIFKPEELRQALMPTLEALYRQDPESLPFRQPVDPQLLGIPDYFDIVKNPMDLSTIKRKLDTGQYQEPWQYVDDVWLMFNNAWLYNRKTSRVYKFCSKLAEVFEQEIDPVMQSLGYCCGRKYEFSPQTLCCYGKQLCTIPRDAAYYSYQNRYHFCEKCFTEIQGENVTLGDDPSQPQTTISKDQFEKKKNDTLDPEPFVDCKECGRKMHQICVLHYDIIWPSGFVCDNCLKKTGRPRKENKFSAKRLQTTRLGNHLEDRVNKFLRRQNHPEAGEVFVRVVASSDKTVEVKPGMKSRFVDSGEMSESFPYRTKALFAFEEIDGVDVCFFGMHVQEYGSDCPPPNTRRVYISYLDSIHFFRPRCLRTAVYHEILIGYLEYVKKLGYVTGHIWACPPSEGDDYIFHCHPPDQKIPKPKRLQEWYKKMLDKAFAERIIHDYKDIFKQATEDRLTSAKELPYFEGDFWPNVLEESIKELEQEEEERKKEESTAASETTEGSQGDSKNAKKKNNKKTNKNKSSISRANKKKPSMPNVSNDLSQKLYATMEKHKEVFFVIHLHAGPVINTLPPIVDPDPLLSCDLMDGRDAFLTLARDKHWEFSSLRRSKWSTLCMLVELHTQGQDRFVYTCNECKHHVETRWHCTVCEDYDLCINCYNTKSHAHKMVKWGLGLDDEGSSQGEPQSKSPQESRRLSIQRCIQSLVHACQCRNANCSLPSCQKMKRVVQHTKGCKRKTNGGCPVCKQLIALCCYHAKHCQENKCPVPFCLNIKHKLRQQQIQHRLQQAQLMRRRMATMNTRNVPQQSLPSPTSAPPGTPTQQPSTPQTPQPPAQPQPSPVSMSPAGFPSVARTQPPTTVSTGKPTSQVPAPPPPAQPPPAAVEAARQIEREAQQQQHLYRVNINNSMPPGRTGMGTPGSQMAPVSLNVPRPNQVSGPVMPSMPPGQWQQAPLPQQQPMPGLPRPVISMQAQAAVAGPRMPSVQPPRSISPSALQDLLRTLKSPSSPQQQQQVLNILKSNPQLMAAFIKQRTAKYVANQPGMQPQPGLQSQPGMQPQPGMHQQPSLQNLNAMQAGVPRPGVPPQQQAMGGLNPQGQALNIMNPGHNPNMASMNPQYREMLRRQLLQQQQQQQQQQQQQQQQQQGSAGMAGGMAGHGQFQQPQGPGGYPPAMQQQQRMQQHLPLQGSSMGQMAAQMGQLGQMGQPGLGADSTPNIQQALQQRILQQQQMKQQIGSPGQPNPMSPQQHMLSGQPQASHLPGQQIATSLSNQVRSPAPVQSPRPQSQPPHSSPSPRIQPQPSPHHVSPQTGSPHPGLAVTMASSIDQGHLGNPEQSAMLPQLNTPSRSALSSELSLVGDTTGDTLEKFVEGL
Sequence of Smo heptahelical domain (Q99835 28-787): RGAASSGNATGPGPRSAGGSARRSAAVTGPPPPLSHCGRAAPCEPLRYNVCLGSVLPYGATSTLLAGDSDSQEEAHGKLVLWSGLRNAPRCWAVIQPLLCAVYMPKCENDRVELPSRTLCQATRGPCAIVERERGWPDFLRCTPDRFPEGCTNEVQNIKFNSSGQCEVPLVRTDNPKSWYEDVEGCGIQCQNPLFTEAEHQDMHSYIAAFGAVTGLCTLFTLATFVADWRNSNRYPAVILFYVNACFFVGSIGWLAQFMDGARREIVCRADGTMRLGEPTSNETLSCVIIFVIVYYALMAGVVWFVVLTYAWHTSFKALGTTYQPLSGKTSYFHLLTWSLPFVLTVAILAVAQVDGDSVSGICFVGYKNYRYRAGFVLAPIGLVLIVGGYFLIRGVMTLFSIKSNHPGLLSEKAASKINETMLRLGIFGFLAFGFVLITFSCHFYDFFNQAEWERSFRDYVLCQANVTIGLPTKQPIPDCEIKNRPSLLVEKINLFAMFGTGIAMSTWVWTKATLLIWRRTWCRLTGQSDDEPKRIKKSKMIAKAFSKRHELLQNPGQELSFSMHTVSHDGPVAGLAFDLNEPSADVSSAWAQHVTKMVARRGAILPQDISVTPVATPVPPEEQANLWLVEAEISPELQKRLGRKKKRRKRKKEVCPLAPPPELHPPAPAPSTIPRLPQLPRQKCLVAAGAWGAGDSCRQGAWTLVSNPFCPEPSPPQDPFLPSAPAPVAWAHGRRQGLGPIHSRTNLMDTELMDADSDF

CNC1CCC(N(Cc2cccc(-c3ccncc3)c2)C(=O)c2sc3ccccc3c2Cl)CC1 (centres unmarked) [SAG]
Kd [1]: 59 nM

Nc1ccncc1 [4-AP, 4 Amino-Pyridine]
Effect on blue light-evoked responses in rat cortical neurons [2]: recovered

O=C1[C@H](Cc2ccc(O)cc2)N2C(=O)CCN(C(=O)NCc3ccccc3)[C@H]2CN1Cc1cccc2ccccc12 [ICG-001]
IC50 [3]: 3000 nM

COc1ccc(-n2c(SCCCN3C(=O)c4cccc5cccc(c45)C3=O)nnc2-c2ccncc2)cc1 [WIKI4]
IC50 [4]: 15 nM

NS(=O)(=O)c1cccc2c1c([N+](=O)[O-])cc1nc(O)c(O)nc12 [NBQX]
Effect on short-latency EPSCs in rat pyramidal cortical neurons [5]: blocked | Effect on short latency EPSCs in human t-hCS neurons [6]: blocked

Cc1cc(-c2ccc(CC(=O)Nc3ccc(-c4cccnc4)cc3)cc2)ccn1 [Wnt-C59]
IC50 [7]: 0.074 nM

Cc1ccc2nc(NC(=O)CSc3nc4c(c(=O)n3-c3ccccc3)SCC4)sc2c1 [IWP-2]
IC50 [8]: 27 nM | Effect against Wnt-stimulated cellular responses [9]: no effect

Cc1cc(-c2ncc(CC(=O)Nc3ccc(-c4cnccn4)cn3)cc2C)ccn1 [LGK-974]
IC50 [10]: 0.4 nM

O=C(CSc1nc2c(c(=O)n1-c1ccccc1)SCC2)Nc1ccc(-c2ccccc2)cn1 [IWP-L6]
EC50 [11]: 0.5 nM
